The subject of assay [1] is KRAS G12C mutant NCI-H358 cells. Nature of the assay: Cell proliferation inhibition experiment, 3D spheroid, CellTiter-Glo, NCI-H358. The following applies: Homo sapiens, NCI-H358, 120 h, NCI-H358 (KRAS G12C mutant) 3D spheroid, 5 days with compound, CellTiter-Glo; read-out: H358 IC50. Type of assay: cell-based, human. In a few lines:
(§1)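 Luminescence (CellTiter-Glo, 30 min incubation) was read after 5 days of compound treatment of overnight-formed spheroids of 800 H358 or 400 A549 cells in 2% FBS medium. Inhibition relative to DMSO and blank controls was fitted with a four-parameter model to yield IC50.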
For orientation: Cellular ATP, detected with luciferase, serves as a proxy for viable cell number.

Assay [2] deals with A549 cells (KRAS G12S mutant). Nature of the assay: Cell proliferation inhibition experiment, 3D spheroid, CellTiter-Glo, A549. The format is cell-based, human. As to conditions: Homo sapiens, A549, 120 h, A549 (KRAS G12S mutant) 3D spheroid, 5 days with compound, CellTiter-Glo; read-out: A549 IC50. Summed up: as §1

SMILES strings stand for the structures.

Take `C=CC(=O)N1CCN2C(=O)c3c(N4CC(N(C)C)CC4(C)C)nc(-c4cccc(F)c4F)c(Cl)c3OC[C@H]2C1` (single isomer, unassigned) [Z473-2]: the IC50 in assay [1] came to 12 nM.

As to `C=CC(=O)N1CCN2C(=O)c3c(N4C[C@@H](N(C)C)CC4(C)C)nc(-c4cccc(F)c4F)c(Cl)c3OC[C@H]2C1` [Z473-1, (R)-8-acryloyl-4-chloro-3-(2,3-difluorophenyl)-1-((S)-4-(dimethylamino)-2,2-dimethylpyrrolidin-1-yl)-6,6a,7,8,9,10-hexahydro-12H-pyrazino[2,1-c]pyrido[3,4-f][1,4]oxazepin-12-one], the IC50 in assay [1] came out at 22 nM.

Consider `C=CC(=O)N1CCN2C(=O)c3c(N4CC(O)CC4(C)C)nc(-c4ccccc4Cl)c(F)c3OC[C@H]2C1` (stereo partly drawn) [Z414-1, (6aR)-8-acryloyl-3-(2-chlorophenyl)-4-fluoro-1-(4-hydroxy-2,2-dimethylpyrrolidin-1-yl)-6,6a,7,8,9,10-hexahydro-12H-pyrazino[2,1-c]pyrido[3,4-f][1,4]oxazepin-12-one], for which the results for the IC50 in assay [1] and in assay [2] were 19 nM and 8890 nM, respectively.

In the case of `C=CC(=O)N1CCN2C(=O)c3c(N4C[C@H](N5CC(C#N)C5)CC4(C)C)nc(-c4ccccc4F)c(Cl)c3OC[C@H]2C1` (single isomer, unassigned) [Z637-1], the half-inhibitory concentration (IC50) came out at 125 nM in assay [1] and 2970 nM in assay [2].

In the case of `C=CC(=O)N1CCN2C(=O)c3c(N4C[C@@H](N(C)C)CC4(C)C)nc(-c4ccccc4F)c(Cl)c3OC[C@H]2C1` [Z453-1, (R)-8-acryloyl-4-chloro-1-((S)-4-(dimethylamino)-2,2-dimethylpyrrolidin-1-yl)-3-(2-fluorophenyl)-6,6a,7,8,9,10-hexahydro-12H-pyrazino[2,1-c]pyrido[3,4-f][1,4]oxazepin-12-one], the results for the IC50 in assay [1] and in assay [2] were 6 nM and 3340 nM, respectively.

With `C=CC(=O)N1CCN2C(=O)c3c(N4CCN(C)C[C@@H]4C)nc(-c4c(O)cccc4Cl)c(Cl)c3OC[C@H]2C1` [Z452, (6aR)-8-acryloyl-4-chloro-3-(2-chloro-6-hydroxyphenyl)-1-((S)-2,4-dimethylpiperazin-1-yl)-6,6a,7,8,9,10-hexahydro-12H-pyrazino[2,1-c]pyrido[3,4-f][1,4]oxazepin-12-one], the IC50 in assay [1] came out at 3.9 nM; in assay [2] it was 8990 nM.

`C=CC(=O)N1CCN2C(=O)c3c(N4CCN(C)C[C@@H]4C)nc(-c4c(O)cccc4F)c(Cl)c3OC[C@H]2C1` [Z51, (6aR)-8-acryloyl-4-chloro-1-((S)-2,4-dimethylpiperazin-1-yl)-3-(2-fluoro-6-hydroxyphenyl)-6,6a,7,8,9,10-hexahydro-12H-pyrazino[2,1-c]pyrido[3,4-f][1,4]oxazepin-12-one]: the IC50 in assay [1] was 4 nM; in assay [2] it was greater than 5000 nM.

Regarding `C=CC(=O)N1CCN2C(=O)c3c(N4CCOC[C@@H]4C)nc(-c4c(O)cccc4F)c(Cl)c3OC[C@H]2C1` [Z32], the 50% inhibitory concentration (IC50) in assay [1] is 9 nM; in assay [2], greater than 5000 nM.

Regarding `C=CC(=O)N1CCN2C(=O)c3c(N4CCC[C@@]4(C)C(=O)NC)nc(-c4c(O)cccc4F)c(Cl)c3OC[C@H]2C1` [Z462, (2S)-1-((6aR)-8-acryloyl-4-chloro-3-(2-fluoro-6-hydroxyphenyl)-12-oxo-6,6a,7,8,9,10-hexahydro-12H-pyrazino[2,1-c]pyrido[3,4-f][1,4]oxazepin-1-yl)-N,2-dimethylpyrrolidine-2-carboxamide], the half-maximal inhibitory concentration (IC50) in assay [1] turned out to be 12.4 nM; in assay [2], 29100 nM.

Take `C=CC(=O)N1CCN2C(=O)c3c(N4C[C@@H](N(C)CCO)CC4(C)C)nc(-c4ccccc4F)c(Cl)c3OC[C@H]2C1` (single isomer, unassigned) [Z658-1]: the 50% inhibitory concentration (IC50) in assay [1] turned out to be 1 nM; in assay [2] it was 2970 nM.

Turning to `C=CC(=O)N1CCN2C(=O)c3c(N4C[C@@H](N(C)CC(F)(F)F)CC4(C)C)nc(-c4ccccc4F)c(Cl)c3OC[C@H]2C1` (single isomer, unassigned) [Z491], the IC50 in assay [1] worked out at 1.4 nM; in assay [2], 4530 nM.

Regarding `C=CC(=O)N1CCN2C(=O)c3c(N4C[C@@H](C(=O)O)CC4(C)C)nc(-c4c(O)cccc4F)c(Cl)c3OC[C@H]2C1` (single isomer, unassigned) [Z458-1], the half-maximal inhibitory concentration (IC50) in assay [1] was 189 nM; in assay [2] it was greater than 10000 nM.

With `C=CC(=O)N1CCN2C(=O)c3c(NC45CC(C4)C5)nc(-c4c(O)cccc4F)c(Cl)c3OC[C@H]2C1` [Z41, (6aR)-8-acryloyl-1-(bicyclo [1.1.1]pentan-1-ylamino)-4-chloro-3-(2-fluoro-6-hydroxyphenyl)-6,6a,7,8,9,10-hexahydro-12H-pyrazino[2,1-c]pyrido[3,4-f][1,4]oxazepin-12-one], the results for the IC50 in assay [1] and in assay [2] were 22 nM and 1220 nM, respectively.

As for `C=CC(=O)N1CCN2C(=O)c3c(N4CCN(C)C[C@@H]4C)nc(-c4c(F)cccc4OC)c(F)c3OC[C@H]2C1` [Z451, (6aR)-8-acryloyl-1-((S)-2,4-dimethylpiperazin-1-yl)-4-fluoro-3-(2-fluoro-6-methoxyphenyl)-6,6 a,7,8,9,10-hexahydro-12H-pyrazino[2,1-c]pyrido[3,4-f][1,4]oxazepin-12 (6 aH)-one], the IC50 in assay [1] was found to be 158 nM; in assay [2] it was 5720 nM.

As for `C=CC(=O)N1CCN2C(=O)c3c(N4CC(N5CCN(C)CC5)CC4(C)C)nc(-c4c(O)cccc4F)c(Cl)c3OC[C@H]2C1` (stereo partly drawn) [Z467, (6aR)-8-acryloyl-4-chloro-1-(2,2-dimethyl-4-(4-methylpiperazin-1-yl)pyrrolidin-1-yl)-3-(2-fluoro-6-hydroxyphenyl)-6,6a,7,8,9,10-hexahydro-12H-pyrazino[2,1-c]pyrido[3,4-f][1,4]oxazepin-12-one], the IC50 in assay [1] is 0.8 nM.

`C=CC(=O)N1CCN2C(=O)c3c(N4CCN(C)C[C@@H]4C)nc(-c4ccccc4Cl)c(Cl)c3OC[C@H]2C1` [Z461, (R)-8-acryloyl-4-chloro-3-(2-chlorophenyl)-1-((S)-2,4-dimethylpiperazin-1-yl)-6,6a,7,8,9,10-hexahydro-12H-pyrazino[2,1-c]pyrido[3,4-f][1,4]oxazepin-12-one]: in assay [1], the IC50 amounted to 24 nM.

Consider `C=CC(=O)N1CCN2C(=O)c3c(N4C[C@H](N5CCN(C)CC5)CC4(C)C)nc(-c4c(O)cccc4F)c(Cl)c3OC[C@H]2C1` (single isomer, unassigned) [Z469-2], for which the IC50 in assay [1] was found to be 2 nM; in assay [2] it was 8460 nM.

As to `C=CC(=O)N1CCN2C(=O)c3c(N4CCN(C)[C@@H](C)[C@H]4C)nc(-c4ccccc4F)c(Cl)c3OC[C@H]2C1` (single isomer, unassigned) [Z465-1], the half-inhibitory concentration (IC50) in assay [1] came out at 13 nM.

For the compound `C=CC(=O)N1CCN2C(=O)c3c(N4C[C@@H](O)CC4(C)C)nc(-c4c(N)cccc4F)c(F)c3OC[C@H]2C1` [Z481, (6aR)-8-acryloyl-3-(2-amino-6-fluorophenyl)-4-fluoro-1-((S)-4-hydroxy-2,2-dimethylpyrrolidin-1-yl)-6,6a,7,8,9,10-hexahydro-12H-pyrazino[2,1-c]pyrido[3,4-f][1,4]oxazepin-12-one], the IC50 in assay [1] was found to be 3.2 nM.

`C=CC(=O)N1CCN2C(=O)c3c(N4CCN(C(=O)CC)C[C@@H]4C)nc(-c4ccccc4F)c(Cl)c3OC[C@H]2C1` [Z477, (R)-8-acryloyl-4-chloro-3-(2-fluorophenyl)-1-((S)-2-methyl-4-propionylpiperazin-1-yl)-6,6a,7,8,9,10-hexahydro-12H-pyrazino[2,1-c]pyrido[3,4-f][1,4]oxazepin-12(6aH)-one]: in assay [1], the IC50 worked out at 8.1 nM.

`C=CC(=O)N1CCN2C(=O)c3c(N4C[C@H](N5CCC5)CC4(C)C)nc(-c4ccccc4F)c(Cl)c3OC[C@H]2C1` (single isomer, unassigned) [Z471-2]: the IC50 in assay [1] is 91 nM.

On to `C=CC(=O)N1CCN2C(=O)c3c(N4C[C@H](N5CCN(C)CC5)C[C@@H]4C)nc(-c4ccccc4F)c(Cl)c3OC[C@H]2C1` [Z470-1], for which, in assay [1], the half-inhibitory concentration (IC50) is 23 nM.

Consider `C=CC(=O)N1CCN2C(=O)c3c(N4C[C@@H](N5CC(OC)C5)CC4(C)C)nc(-c4ccccc4F)c(Cl)c3OC[C@H]2C1` [Z479-1, (R)-8-acryloyl-4-chloro-3-(2-fluorophenyl)-1-((S)-4-(3-methoxyazetidin-1-yl)-2,2-dimethylpyrrolidin-1-yl)-6,6a,7,8,9,10-hexahydro-12H-pyrazino[2,1-c]pyrido[3,4-f][1,4]oxazepin-12-one], for which the IC50 in assay [1] turned out to be 5.7 nM.

In the case of `C=CC(=O)N1CCN2C(=O)c3c(N4CC[C@@H](N(C)C)C4(C)C)nc(-c4ccccc4F)c(Cl)c3OC[C@H]2C1` [Z502-1, (6aR)-8-acryloyl-4-chloro-1-(3-(dimethylamino)-2,2-dimethylpyrrolidin-1-yl)-3-(2-fluorophenyl)-6,6a,7,8,9,10-hexahydro-12H-pyrazino[2,1-c]pyrido[3,4-f][1,4]oxazepin-12(6aH)-one], the IC50 in assay [1] stood at 29.6 nM.

On to `C=CC(=O)N1CCN2C(=O)c3c(N4CCN(C)C[C@@H]4C)nc(C#CC)c(Cl)c3OC[C@H]2C1` [Z459, (R)-8-acryloyl-4-chloro-1-((S)-2,4-dimethylpiperazin-1-yl)-3-(prop-1-yn-1-yl)-6,6a,7,8,9,10-hexahydro-12H-pyrazino[2,1-c]pyrido[3,4-f][1,4]oxazepin-12-one], for which, in assay [1], the half-maximal inhibitory concentration (IC50) came out at 906 nM.

Regarding `C=CC(=O)N1CCN2C(=O)c3c(N4CCN(C)C[C@@H]4C)nc(-c4c(N)cccc4F)c(Cl)c3OC[C@H]2C1` [Z503, (6aR)-8-acryloyl-3-(2-amino-6-fluorophenyl)-4-chloro-1-((S)-2,4-dimethylpiperazin-1-yl)-6,6a,7,8,9,10-hexahydro-12H-pyrazino[2,1-c]pyrido[3,4-f][1,4]oxazepin-12-one], in assay [1], the IC50 stood at 9.5 nM.

Take `C=CC(=O)N1CCN2C(=O)c3c(N4C[C@@H](C)N(C)C[C@@H]4C)nc(-c4ccccc4F)c(Cl)c3OC[C@H]2C1` [Z464]: in assay [1], the IC50 was 144 nM.

Broadly, the IC50 is the midpoint of a concentration-inhibition curve.

The record behind these values is US20230203060A1 (GENFLEET THERAPEUTICS (SHANGHAI) INC., priority 2020, published 2023).
